According to ChEMBL document CHEMBL1781997, “Anticonvulsant 4-aminobenzenesulfonamide derivatives with branched-alkylamide moieties: X-ray crystallography and inhibition studies of human carbonic anhydrase isoforms I, II, VII, and XIV” (J Med Chem, 2011):
pKi: −log10 of the molar value.

molecular target: Carbonic anhydrase 2 (Homo sapiens, UniProt P00918)
Description: Inhibition of human carbonic anhydrase 2 preincubated with compound for 15 mins by carbon dioxide hydration assay

Row | pKi | Structure (SMILES)
1 | 7.47 | CCC(CC)C(=O)NCCc1ccc(S(N)(=O)=O)cc1
2 | 6.66 | CCCC(C)C(=O)Nc1ccc(S(N)(=O)=O)cc1 (configuration not stated)

system: Rattus norvegicus; assay: Anticonvulsant activity against maximal electroshock-induced seizures in po dosed rat; assay type: functional

Row | Structure (SMILES) | ED50 [µmol/kg]
3 | CCC(C)CC(=O)Nc1ccc(S(N)(=O)=O)cc1 (configuration not stated) | 61
4 | CC(C)(C)CC(=O)Nc1ccc(S(N)(=O)=O)cc1 | 35
5 | NS(=O)(=O)Cc1noc2ccccc12 [ZONISAMIDE] | 100
6 | CC1(C)O[C@@H]2[C@@H](CO[C@@]3(COS(N)(=O)=O)OC(C)(C)O[C@@H]23)O1 [TOPIRAMATE] | 10
7 | CCCCC(CC)C(=O)Nc1ccc(S(N)(=O)=O)cc1 (configuration not stated) | 80
8 | NS(=O)(=O)c1ccc(NC(=O)Cc2ccccc2)cc1 | 55
9 | CCC(C)C(=O)Nc1ccc(S(N)(=O)=O)cc1 (configuration not stated) | 30
10 | CCCC(CC)C(=O)Nc1ccc(S(N)(=O)=O)cc1 (configuration not stated) | 41
11 | CCC(CC)C(=O)Nc1ccc(S(N)(=O)=O)cc1 | 37
12 | CCCC(C(=O)Nc1ccc(S(N)(=O)=O)cc1)C(C)CC (configuration not stated) | 115
13 | CC(C)C(C(=O)Nc1ccc(S(N)(=O)=O)cc1)C(C)(C)C (configuration not stated) | 58
14 | CCCC(C)C(=O)Nc1ccc(S(N)(=O)=O)cc1 (configuration not stated) | 40
15 | CCCC(C(=O)Nc1ccc(S(N)(=O)=O)cc1)C(C)C (configuration not stated) | 139
16 | CCC(CC)C(=O)NCc1ccc(S(N)(=O)=O)cc1 | 87
17 | CC(C)(C)C(=O)Nc1ccc(S(N)(=O)=O)cc1 | 165
18 | CCC(CC(C)C)C(=O)Nc1ccc(S(N)(=O)=O)cc1 (configuration not stated) | 56

molecular target: Carbonic anhydrase 1 (Homo sapiens, UniProt P00915)
Sequence (P00915 whole entry): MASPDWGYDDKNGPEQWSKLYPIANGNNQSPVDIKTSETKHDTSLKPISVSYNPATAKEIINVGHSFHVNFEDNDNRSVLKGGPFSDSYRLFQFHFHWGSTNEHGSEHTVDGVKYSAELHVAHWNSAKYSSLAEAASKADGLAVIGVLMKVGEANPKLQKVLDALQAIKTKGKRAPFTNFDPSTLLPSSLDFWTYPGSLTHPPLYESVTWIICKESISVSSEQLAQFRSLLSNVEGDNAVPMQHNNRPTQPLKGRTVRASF
Description: Inhibition of human carbonic anhydrase 1 preincubated with compound for 15 mins by carbon dioxide hydration assay

Row | pKi | Structure (SMILES)
19 | 8.12 | NS(=O)(=O)c1ccc(NC(=O)Cc2ccccc2)cc1
20 | 6.39 | CCC(CC)C(=O)NCCc1ccc(S(N)(=O)=O)cc1
21 | 5.77 | CCCC(C)C(=O)Nc1ccc(S(N)(=O)=O)cc1 (configuration not stated)

molecular target: Carbonic anhydrase 14 (Homo sapiens, UniProt Q9ULX7)
Sequence (Q9ULX7 whole entry): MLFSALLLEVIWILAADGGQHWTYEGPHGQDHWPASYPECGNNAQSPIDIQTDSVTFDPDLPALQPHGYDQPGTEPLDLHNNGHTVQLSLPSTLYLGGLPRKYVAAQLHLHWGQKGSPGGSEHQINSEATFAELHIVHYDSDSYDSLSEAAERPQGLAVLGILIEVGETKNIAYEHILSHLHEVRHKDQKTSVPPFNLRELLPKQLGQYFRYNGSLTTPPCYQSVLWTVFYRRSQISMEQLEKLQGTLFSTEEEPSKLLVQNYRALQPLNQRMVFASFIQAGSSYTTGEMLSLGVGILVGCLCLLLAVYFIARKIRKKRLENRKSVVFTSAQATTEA
Description: Inhibition of human carbonic anhydrase 14 preincubated with compound for 15 mins by carbon dioxide hydration assay

Row | pKi | Structure (SMILES)
22 | 7.34 | NS(=O)(=O)c1ccc(NC(=O)Cc2ccccc2)cc1
23 | 6.16 | CCC(CC)C(=O)NCCc1ccc(S(N)(=O)=O)cc1
24 | 6.19 | CCCC(C)C(=O)Nc1ccc(S(N)(=O)=O)cc1 (configuration not stated)

molecular target: Carbonic anhydrase 7 (Homo sapiens, UniProt P43166)
Sequence (P43166 whole entry): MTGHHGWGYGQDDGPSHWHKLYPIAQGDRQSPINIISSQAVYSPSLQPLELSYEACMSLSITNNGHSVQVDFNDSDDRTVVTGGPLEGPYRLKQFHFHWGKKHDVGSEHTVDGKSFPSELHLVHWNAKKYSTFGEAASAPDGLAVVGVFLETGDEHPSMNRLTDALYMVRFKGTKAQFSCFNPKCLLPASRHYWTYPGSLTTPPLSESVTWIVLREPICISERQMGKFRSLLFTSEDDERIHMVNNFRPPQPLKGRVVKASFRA
Description: Inhibition of human carbonic anhydrase 7 preincubated with compound for 15 mins by carbon dioxide hydration assay

Row | pKi | Structure (SMILES)
25 | 7.28 | NS(=O)(=O)c1ccc(NC(=O)Cc2ccccc2)cc1
26 | 7.29 | CCC(CC)C(=O)NCCc1ccc(S(N)(=O)=O)cc1
27 | 6.22 | CCCC(C)C(=O)Nc1ccc(S(N)(=O)=O)cc1 (configuration not stated)
